In patent publication US20090298891A1, “Methods of Treating or Preventing Cancer Using Pyridine Carboxaldehyde Pyridine Thiosemicarbazone Radiosensitizing Agents” (GOVERNMENT OF THE US, AS REPRESENTED BY THE SECRETADY OF …, priority 2005, published 2009):

Columns and labels:
U251 tumors = test: In vivo tumor growth delay assay, U251 xenografts; parameters: species or system mice; details: combination of Triapine and radiation
Description: In Vivo Tumor Growth Delay Assay. Male 6 week old athymic nude mice (NCr nu/nu) were used in these studies. Mice, housed in filter-topped cages, were provided autoclaved feed and hyperchlorinated water ad libitum. U251 or PSN1 tumor cells were implanted subcutaneously in the hind leg. Irradiation was performed using a Pantak (Solon, Ohio) irradiator with animals restrained in a custom lead jig, which allowed for the localized irradiation of tumors at the base of the tail. When tumors reached 177 mm^3 (7×7 mm) Triapine (30-60 mg/kg) was delivered by intraperitoneal injection and 6 h later tumors were irradiated with a single dose of 4 or 5 Gy. To obtain growth curves, perpendicular diameter measurements of each tumor were collected every 3 days with calipers, and the volumes were calculated using the formula (L×W×W)/2. Tumors were followed until the group's tumors were greater than 1500 mm^3. Specific tumor growth delay was calculated as the number of days for the treated tumors to grow to 1400 mm^3 minus the number of days for the control group to reach the same size. […]
In vivo activity of Triapine in conjunction with radiation was determined through growth delays in mice with subcutaneous human tumor xenografts. Based on the above described in vitro results, xenografts of PSN1 and U251 were evaluated in vivo. […]

[1] = system: DU145 (prostate carcinoma) cell line; test: Clonogenic assay, DU145; assay type: cell-based, human
Description: (§1) Cell lines and treatment. Three human tumor cell lines were evaluated: a glioma (U251), a pancreatic carcinoma (PSN1) and a prostate carcinoma (DU145), each was obtained from the Developmental Therapeutics Program, DCTD, NCI. The cell lines were grown in RPMI 1640 (Life Technologies, Rockville, Md.) containing […] (5 mM) and 5% FBS and maintained at 37° C. in an atmosphere of 5% CO2 and 95% room air. Triapine (3-amino-2-carboxaldehyde-pyridine thiosemicarbazone), provided by Vion Pharmaceuticals of New Haven, Conn., was dissolved in dimethylsulfoxide to a stock concentration of 10 mM and stored at −20° C. Cultures were irradiated using a Pantak (Solon, Ohio) X-ray source at a dose rate of 1.55 Gy/minute.
(§2) Clonogenic assay. Cell cultures were trypsinized to generate a single cell suspension and a specified number of cells were seeded into each well of 6-well tissue culture plates. In the first experiment, drug or vehicle control was, added at specified concentrations, and the plates were irradiated 16 hours later. Immediately after irradiation, the growth media was aspirated, and fresh media was added. In the second experiment, cells were seeded, and irradiated 6 hours after seeding. Immediately after irradiation, the cells were treated with the specified concentration of drug. After 16 hours of exposure, drug was aspirated, and replaced with fresh media. Ten to twelve days after seeding, colonies were stained with crystal violet, and the number of colonies containing at least 50 cells was determined and the surviving fractions were calculated. Survival curves were generated after normalizing for the cytotoxicity generated by drug alone. Data presented are the mean±SEM from at least three independent experiments. Radiation dose enhancement factors (DEFs) represent the ratio of radiation dose required to achieve 10% survival in the control cells and the drug-treated cells.

[2] = system: PSN1 (pancreatic carcinoma) cell line; test: Clonogenic assay, PSN1; assay type: cell-based, human
Description: as §1, §2

[3] = system: DNA synthesis activity in U251 cells; test: DNA synthesis assay (BrdU incorporation); assay type: cell-based, human; details: after 16 hours of Triapine exposure
Description: DNA Synthesis Assay. DNA synthesis was quantified as an indirect measure of ribonucleotide reductase activity. A 5-bromo-2′-deoxyuridine (BrdU) incorporation assay kit (#1669915) produced by Roche Applied Science (Mannheim, Germany) was used. Cells were seeded in wells of a black wall 96-well plate and allowed to incubate for 24 hours. Drug was added, and after 16 hours of exposure, 10 μM BrdU pulses were added hourly for 2 hours, according to manufacturer's instructions. After fixation, an anti-BrdU peroxidase antibody conjugate was applied for 90 minutes at room temperature. The conjugate was then rinsed three times, and luminol was added. Chemiluminescence was detected with a Wallac 1420 multilabel counter (Perkin Elmer Life Sciences, Turku, Finland), and data was exported for off-line analysis. Triplicate samples were run for three independent experiments; data is presented as the mean of three experiments±SEM.

[4] = system: U251 (human glioma) cell line; test: Clonogenic assay, U251; assay type: cell-based
Description: as §1, §2

PSN1 tumors = test: In vivo tumor growth delay assay, PSN1 xenografts; parameters: species or system mice
Description: In Vivo Tumor Growth Delay Assay. Male 6 week old athymic nude mice (NCr nu/nu) were used in these studies. Mice, housed in filter-topped cages, were provided autoclaved feed and hyperchlorinated water ad libitum. U251 or PSN1 tumor cells were implanted subcutaneously in the hind leg. Irradiation was performed using a Pantak (Solon, Ohio) irradiator with animals restrained in a custom lead jig, which allowed for the localized irradiation of tumors at the base of the tail. When tumors reached 177 mm^3 (7×7 mm) Triapine (30-60 mg/kg) was delivered by intraperitoneal injection and 6 h later tumors were irradiated with a single dose of 4 or 5 Gy. To obtain growth curves, perpendicular diameter measurements of each tumor were collected every 3 days with calipers, and the volumes were calculated using the formula (L×W×W)/2. Tumors were followed until the group's tumors were greater than 1500 mm^3. Specific tumor growth delay was calculated as the number of days for the treated tumors to grow to 1400 mm^3 minus the number of days for the control group to reach the same size. Each experimental group contained 10 mice and the untreated group contained 15 mice. All animal studies were conducted in accordance with the principles and procedures outlined in the U.S.P.H.S. Guide for the Care and Use of Laboratory Animals in an AAALAC-approved facility under an approved animal protocol.
In vivo activity of Triapine in conjunction with radiation was determined through growth delays in mice with subcutaneous human tumor xenografts. Based on the above described in vitro results, xenografts of PSN1 and U251 were evaluated in vivo. Triapine (40 mg/kg) was given 6 hours prior to a single radiation dose (4 or 5 Gy). After 3 volumetric doublings of the PSN1 tumors, Triapine alone yielded a 1.6 day growth delay, and radiation caused a 9.8 day growth delay. […] See, FIG. 8 (U251) and FIG. 9 (PSN1) for a graph of tumor growth delay data.

U251 cells = test: Cell cycle phase analysis (flow cytometry); assay type: cell-based, human; details: 16 hours of Triapine exposure (5 μM)
Description: Cell Cycle Phase Analysis. Cell cycle phase distribution was analyzed using flow cytometry. Cells were seeded in T75 flasks at subconfluent density and exposed to Triapine, or vehicle for 16 hours, at which time cells were fixated and stained with propidium iodide for flow cytometry analysis at the Clinical Services Program at the National Cancer Institute-Frederick. A two-tailed, paired t-test was performed on the data from the replicated analysis.

With `NC(=S)N/N=C/c1ncccc1N` [Triapine, 3-amino-2-carboxaldehyde-pyridine thiosemicarbazone] the “growth delay / DEF effect of combination” value (U251 tumors) was “a similar effect was observed”, the “Survival following 16 hours of Triapine exposure” value (from here on “Survival following 16 hours”) ([1]; DU145, 5 μM, drug alone) was 68% and the “radiosensitization / DEF, Triapine after irradiation” value (from here on “radiosensitization / DEF, Triapine”) ([1]; DU145, Triapine for 16 hours after irradiation) was “DEFs similar to those obtained when cells were exposed prior to irradiation”. For the same compound, the “dose enhancement factor (DEF)” value ([1]; DU145, Triapine given prior to radiation, ratio of radiation dose for 10% survival) was 2.05, the “Survival following 16 hours” value ([2]; PSN1, 3 μM, drug alone) was 33% and the “radiosensitization / DEF, Triapine” value ([2]; PSN1, Triapine for 16 hours after irradiation) was “DEFs similar to those obtained when cells were exposed prior to irradiation”. The “dose enhancement factor (DEF)” value ([2]; PSN1, Triapine given prior to radiation, ratio of radiation dose for 10% survival) was 1.64, the DNA synthesis [3] was “less than 5 % of control” and the “time for DNA synthesis to return to control levels” value [3] was 7 h. For the same compound, the “Survival following 16 hours” value ([4]; U251, 5 μM, drug alone) was 53%, the “radiosensitization / DEF, Triapine” value ([4]; U251, Triapine for 16 hours after irradiation) was “DEFs similar to those obtained when cells were exposed prior to irradiation” and the “dose enhancement factor (DEF)” value ([4]; U251, Triapine given prior to radiation, ratio of radiation dose for 10% survival) was 1.50. The growth delay (PSN1 tumors; Triapine alone, 40 mg/kg intraperitoneal, after 3 volumetric doublings of PSN1 tumors) was 1.6 days, the growth delay (PSN1 tumors; combination of Triapine (40 mg/kg, 6 hours prior) and single radiation dose (4 or 5 Gy), PSN1 tumors) was 20.9 days and the “DEF (in vivo)” value (PSN1 tumors; combination of Triapine and radiation, PSN1 tumors) was 2.0. For the same compound, the “percentage of cells in G1” value (U251 cells) was “increased” and the “percentage of cells in G2/M” value (U251 cells) was “decreased”.
